# Measured values from patent publication US20230174584A1, “Antibiotic Compounds” (priority 2019, published 2023).
# Tests used:
# Assay type in all cases: cell-based, Staphylococcus aureus
# NRS17 = test: MIC assay, VISA and VRSA panel; settings: strain NRS17
# Description: (§1) The antibacterial activity of the compounds was tested against a panel of bacteria, including Gram-positive bacteria (S. aureus ATCC29213, S. aureus USA300, S. aureus LIM-2, NR-45881, S. aureus HIP13419, NR-46413, E. faecium E155, E. faecium E7314, E. faecium E980, E. faecalis E1246, E. faecalis E7406 and S. pneumonia 153). The antibacterial activity of the compounds was further tested against S. aureus NY-155, NR-46236, S. aureus HIP12864, NR-46074, S. aureus 880 (BR-VRSA), NR-49120, E. faecalis E1246, E. faecalis E7604, as well as some Gram-negative bacteria (Escherichia coli and Klebsiella pneumoniae). Minimum inhibitory concentrations (MICs) in μg/mL were performed according to the CLSI guidelines. From glycerol stocks, bacterial strains were cultured on blood agar plates and incubated at 37° C. for 18 h. A single colony was transferred to tryptic soy broth (TSB) with 0.002% polysorbate 80 (p80). For the Enterococcus, VISA and VRSA strains, the cultures were grown at 37° C. until the optical density of the suspension reached a level equivalent to the 0.5 McFarland standard. The bacterial suspensions were diluted in TSB with 0.002% p80 to reach a bacterial cell density of 10^6 CFU/mL. In case of the other (vancomycin-sensitive) S. aureus strains, the direct colony suspension method was used. For these strains, after transfer of the colonies to TSB with 0.002% p80, they were immediately diluted to 10^6 CFU/mL, instead of incubated prior to this dilution. In the case of S. pneumonia, direct colony suspension was used by immediately suspending multiple colonies from fresh blood agar plates in TSB+0.002% p80 to an OD600 of 0.5 and subsequent dilution to 10^6 CFU mL^−1 in TSB+0.002% p80+5% lysed horse blood. Antibiotic dilutions for this strains were also made in TSB+0.002% p80+5% lysed horse blood. Both agar and microplates containing S. pneumonia were incubated at 37° C. with 5% CO2 for 24 h with constant shaking (600 rpm). […] The cultures were grown to exponential phase (OD600=0.5) at 37° C. […] In polypropylene 96-well microtiter plates, test compounds were added in biological triplicates and serial diluted 2-fold by transfer and mixing from one well to the next to achieve a final volume of 50 μL per well. An equal volume of bacterial suspension (10^6 CFU mL^−1) was added to the wells. The plates were sealed with breathable membranes and incubated at 37° C. for 24 h with constant shaking (600 rpm). In polypropylene microtiter plates, 100 μL of the test compounds was added to the first row in biological triplicates, and 50 μL of media was added to the other wells. The compounds were subjected to serial dilution by transfer and mixing of 50 μL from one well to the next. Subsequently, 50 μL of bacterial suspension (10^6 CFU/mL) was added to the wells. The plates were sealed with breathable membranes and incubated at 37° C. for 24 h with constant shaking (600 rpm). Positive growth control consisted of wells with bacterial suspension and without antibiotic. Negative growth control consisted of solely media without bacterial suspension or antibiotic. The MICs were determined from the median of a minimum of triplicates.
# NRS18 = test: MIC assay, VISA and VRSA panel; settings: strain NRS18
# Description: as §1
# NRS19 = test: MIC assay, VISA and VRSA panel; settings: strain NRS19
# Description: as §1
# NRS51 = test: MIC assay, VISA and VRSA panel; settings: strain NRS51
# Description: as §1
# NRS52 = test: MIC assay, VISA and VRSA panel; settings: strain NRS52
# Description: as §1
# NRS63SH = test: MIC assay, VISA and VRSA panel; settings: strain NRS63SH
# Description: as §1
# VRS11a = test: MIC assay, VISA and VRSA panel; settings: strain VRS11a
# Description: as §1
# VRS2 = test: MIC assay, VISA and VRSA panel; settings: strain VRS2
# Description: as §1
# VRS3a = test: MIC assay, VISA and VRSA panel; settings: strain VRS3a
# Description: as §1
# VRS4 = test: MIC assay, VISA and VRSA panel; settings: strain VRS4
# Description: as §1
# VRS5 = test: MIC assay, VISA and VRSA panel; settings: strain VRS5
# Description: as §1
# VRS7 = test: MIC assay, VISA and VRSA panel; settings: strain VRS7
# Description: as §1
# VRS8 = test: MIC assay, VISA and VRSA panel; settings: strain VRS8
# Description: as §1
# VRS9 = test: MIC assay, VISA and VRSA panel; settings: strain VRS9
# Description: as §1
# VRSA3b = test: MIC assay, VISA and VRSA panel; settings: strain VRSA3b
# Description: as §1
# S. aureus ATCC29213 = test: UDP-MurNAc-pentapeptide accumulation assay; settings: S. aureus ATCC29213, 5 μM, 1 h
# Description: An overnight culture of bacterial suspension (S. aureus ATCC29213, E. faecium E155, E. faecium E7314 and E. faecium E980) was diluted 100-fold in TSB supplemented with 0.002% p80 and cultured at 37° C. until the optical density of the suspension reached a level equivalent to the 0.5 McFarland standard. Chloramphenicol was added at a final concentration of 130 μg/mL and the culture was incubated for an additional 15 min at 37° C. […] The cultures were incubated at 37° C. for 1 h, after which they were centrifuged to pellet the bacteria. The supernatant was removed and the pellets were resuspended in 1 mL MQ-H2O. The samples were boiled at 100° C. for 15 minutes and subsequently centrifuged at 12000 rpm for 30 minutes. The supernatant of the samples was lyophilized and redissolved in 250 μL buffer A (50 mM ammonium bicarbonate, 5 mM NEt3, pH 8.3). Samples were analyzed by analytical RP-HPLC using a 0-25% buffer B (MeOH) gradient over 25 minutes.
# An UDP-MurNAc-pentapeptide accumulation assay was performed to elucidate part of the mechanism of action of the compounds. UDP-MurNAc-pentapeptide is the last soluble precursor of peptidoglycan cell wall biosynthesis. In this assay, live cells accumulate this last soluble precursor when treated with compounds that interfere with the membrane bound stages of peptidoglycan biosynthesis (Sass, V. et al. Human beta-defensin 3 inhibits cell wall biosynthesis in Staphylococci. Infect. Immun. 78, 2793-2800 (2010)).
smiles,measurement,setting,value
CCCCCCCNC(N)=Nc1ccc(CN[C@@]2(C)C[C@H](O[C@H]3[C@H](Oc4c5cc6cc4Oc4ccc(cc4Cl)[C@@H](O)[C@@H](NC(=O)[C@@H](CC(C)C)NC)C(=O)N[C@@H](CC(N)=O)C(=O)N[C@H]6C(=O)N[C@H]4C(=O)N[C@H](C(=O)N[C@H](C(=O)O)c6cc(O)cc(O)c6-c6cc4ccc6O)[C@H](O)c4ccc(c(Cl)c4)O5)O[C@H](CO)[C@@H](O)[C@@H]3O)O[C@@H](C)[C@H]2O)cc1 [Compound 5],MIC,NRS17,0.25 µg/mL
same,MIC,NRS18,0.125 µg/mL
same,MIC,NRS19,0.063 µg/mL
same,MIC,NRS51,0.031 µg/mL
same,MIC,NRS52,0.031 µg/mL
same,MIC,NRS63SH,8 µg/mL
same,MIC,VRS11a,16 µg/mL
same,MIC,VRS2,0.25 µg/mL
same,MIC,VRS3a,0.25 µg/mL
same,MIC,VRS4,8 µg/mL
same,MIC,VRS5,4 µg/mL
same,MIC,VRS7,4 µg/mL
same,MIC,VRS8,16 µg/mL
same,MIC,VRS9,16 µg/mL
same,MIC,VRSA3b,1 µg/mL
same,accumulation of UDP-MurNAc-pentapeptide,S. aureus ATCC29213,accumulation of UDP-MurNAc-pentapeptide
CCCCCCCCCNC(N)=Nc1ccc(CN[C@@]2(C)C[C@H](O[C@H]3[C@H](Oc4c5cc6cc4Oc4ccc(cc4Cl)[C@@H](O)[C@@H](NC(=O)[C@@H](CC(C)C)NC)C(=O)N[C@@H](CC(N)=O)C(=O)N[C@H]6C(=O)N[C@H]4C(=O)N[C@H](C(=O)N[C@H](C(=O)O)c6cc(O)cc(O)c6-c6cc4ccc6O)[C@H](O)c4ccc(c(Cl)c4)O5)O[C@H](CO)[C@@H](O)[C@@H]3O)O[C@@H](C)[C@H]2O)cc1 [Compound 7],accumulation of UDP-MurNAc-pentapeptide,S. aureus ATCC29213,accumulation of UDP-MurNAc-pentapeptide
CCCCCCCCNC(N)=Nc1ccc(CN[C@@]2(C)C[C@H](O[C@H]3[C@H](Oc4c5cc6cc4Oc4ccc(cc4Cl)[C@@H](O)[C@@H](NC(=O)[C@@H](CC(C)C)NC)C(=O)N[C@@H](CC(N)=O)C(=O)N[C@H]6C(=O)N[C@H]4C(=O)N[C@H](C(=O)N[C@H](C(=O)O)c6cc(O)cc(O)c6-c6cc4ccc6O)[C@H](O)c4ccc(c(Cl)c4)O5)O[C@H](CO)[C@@H](O)[C@@H]3O)O[C@@H](C)[C@H]2O)cc1 [Compound 6],accumulation of UDP-MurNAc-pentapeptide,S. aureus ATCC29213,accumulation of UDP-MurNAc-pentapeptide
CN[C@H](CC(C)C)C(=O)N[C@H]1C(=O)N[C@@H](CC(N)=O)C(=O)N[C@H]2C(=O)N[C@H]3C(=O)N[C@H](C(=O)N[C@H](C(=O)O)c4cc(O)cc(O)c4-c4cc3ccc4O)[C@H](O)c3ccc(c(Cl)c3)Oc3cc2cc(c3O[C@@H]2O[C@H](CO)[C@@H](O)[C@H](O)[C@H]2O[C@H]2C[C@](C)(NCc3ccc(N=C(N)NC/C=C(\C)CCC=C(C)C)cc3)[C@H](O)[C@H](C)O2)Oc2ccc(cc2Cl)[C@H]1O [Compound 14],accumulation of UDP-MurNAc-pentapeptide,S. aureus ATCC29213,accumulation of UDP-MurNAc-pentapeptide
